Experimental data: patent US11911386B2, “Methods of treating B-cell proliferative disorder” (BeiGene Switzerland GmbH, priority 2022, dated 2024)
Several values for one entry are separate records, joined by “and”; a condition that tells them apart may be missing. Identical values can stand only once. Like-named read-outs stand apart in the source and are kept apart here.

With `C=CC(=O)N1CCC([C@@H]2CCNc3c(C(N)=O)c(-c4ccc(Oc5ccccc5)cc4)nn32)CC1` [zanubrutinib, (S)-7-(1-acryloylpiperidin-4-yl)-2-(4-phenoxyphenyl)-4,5,6,7-tetrahydropyrazolo[1,5-a]pyrimidine-3-carboxamide] the “Opportunistic infection AESI, EAIR” value (During Coadministration) was 0.67 per 100 person-months, the “Opportunistic infection AESI, patients” value (During Coadministration) was 2.9% and the “Opportunistic infection SAEs, EAIR” value (During Coadministration) was 0.50 per 100 person-months. The “Patients with at least 1 AESI” value (During Coadministration) was 67 (48.6) n (%), the “Petechiae (hemorrhage AESI)” value (During Coadministration) was 0.7% and the “Platelet count decreased PT” value (During Coadministration) was 2.2%. The “Platelet count decreased ≥Grade 3” value (During Coadministration) was 1.4%, the “Purpura (hemorrhage AESI)” value (During Coadministration) was 0.0% and the “SAEs of opportunistic infections, patients” value (During Coadministration) was 2.2% and 2.9%. For the same compound, the “Second primary malignancies AESI leading to dose interruption” value (During Coadministration) was 1.4%, the “Second primary malignancies AESI ≥Grade 3, EAIR” value (During Coadministration) was 0.33 per 100 person-months and the “Second primary malignancies AESI ≥Grade 3, patients” value (During Coadministration) was 1.4%. For the same compound, the “Second primary malignancies AESI, EAIR” value (During Coadministration) was 0.72 per 100 person-months, the “Second primary malignancies AESI, patients” value (During Coadministration) was 2.9% and the Sepsis (During Coadministration) was 2.2%. For the same compound, the “Serious AESI” value (During Coadministration) was 29 (21.0) n (%), the “Serious atrial fibrillation and flutter AESI, EAIR” value (During Coadministration) was 0.0 per 100 person-months and the “Serious atrial fibrillation and flutter AESI, patients” value (During Coadministration) was 0.0%. For the same compound, the “Serious external ear neoplasm malignant” value (During Coadministration) was 1 (0.7%) n (%), the Serious haematuria (During Coadministration) was 0 (0.0%) n (%) and the “Serious haematuria (major hemorrhage)” value (During Coadministration) was 0 (0.0%) n (%). The “Serious hemorrhage AESI, EAIR” value (During Coadministration) was 0.0 per 100 person-months, the “Serious hemorrhage AESI, patients” value (During Coadministration) was 0.0% and the “Serious hypertension AESI, EAIR” value (During Coadministration) was 0.16 per 100 person-months. For the same compound, the “Serious infection AESI, EAIR” value (During Coadministration) was 6.16 per 100 person-months, the “Serious major hemorrhage AESI, EAIR” value (During Coadministration) was 0.0 per 100 person-months and the “Serious major hemorrhage AESI, patients” value (During Coadministration) was 0.0%. The “Serious neutropenia AESI, EAIR” value (During Coadministration) was 1.11 per 100 person-months, the “Serious neutropenia AESI, patients” value (During Coadministration) was 4.3% and the Serious neutropenic sepsis (During Coadministration) was 0%. For the same compound, the “Serious neutrophil count decreased” value (During Coadministration) was 0.7%, the “Serious second primary malignancies AESI, EAIR” value (During Coadministration) was 0.33 per 100 person-months and the “Serious second primary malignancies AESI, patients” value (During Coadministration) was 1.4%. For the same compound, the “Serious squamous cell carcinoma of skin” value (During Coadministration) was 0 (0.0%) n (%), the Sinusitis (During Coadministration) was 2.9% and the “Skin cancer AESI ≥Grade 3, EAIR” value (During Coadministration) was 0.00 per 100 person-months. For the same compound, the “Skin cancer AESI, EAIR” value (During Coadministration) was 0.17 per 100 person-months, the “Skin cancer AESI, patients” value (During Coadministration) was 0.7% and the “Skin cancer SAE, EAIR” value (During Coadministration) was 0.00 per 100 person-months. For the same compound, the “Squamous cell carcinoma of skin” value (During Coadministration) was 0.7%, the “Squamous cell carcinoma of skin ≥Grade 3” value (During Coadministration) was 0 (0.0%) n (%) and the “Thrombocytopenia AESI leading to dose interruption” value (During Coadministration) was 1.4%. For the same compound, the “Thrombocytopenia AESI ≥Grade 3, EAIR” value (During Coadministration) was 0.83 per 100 person-months, the “Thrombocytopenia AESI ≥Grade 3, patients” value (During Coadministration) was 3.6% and the “Thrombocytopenia AESI, EAIR” value (During Coadministration) was 1.52 per 100 person-months. The “Thrombocytopenia AESI, patients” value (During Coadministration) was 6.5%, the “Thrombocytopenia PT” value (During Coadministration) was 4.3% and the “Viral upper respiratory tract infection” value (During Coadministration) was 2.2%. The “Anemia AESI ≥Grade 3, EAIR” value (Prior to Coadministration) was 0.54 per 100 person-months, the “Anemia AESI, EAIR” value (Prior to Coadministration) was 1.07 per 100 person-months and the “Atrial fibrillation PT” value (Prior to Coadministration) was 1.7%. The “Atrial fibrillation and flutter AESI Grade ≥3, EAIR” value (Prior to Coadministration) was 0.13 per 100 person-months, the “Atrial fibrillation and flutter AESI Grade ≥3, patients” value (Prior to Coadministration) was 1.7% and the “Atrial fibrillation and flutter AESI, EAIR” value (Prior to Coadministration) was 0.13 per 100 person-months. For the same compound, the “Atrial fibrillation and flutter AESI, patients” value (Prior to Coadministration) was 1.7%, the “Atrial flutter PT” value (Prior to Coadministration) was 0.0% and the Basal cell carcinoma (Prior to Coadministration) was 4.2%. The “Basal cell carcinoma leading to dose interruption” value (Prior to Coadministration) was 2 (1.7%) n (%), the “Basal cell carcinoma ≥Grade 3” value (Prior to Coadministration) was 2 (1.7%) n (%) and the Bronchopulmonary aspergillosis (Prior to Coadministration) was 3 (2.5%) n (%). For the same compound, the “External ear neoplasm malignant leading to dose interruption” value (Prior to Coadministration) was 2 (1.7%) n (%), the “Febrile neutropenia PT” value (Prior to Coadministration) was 1.7% and the “Grade 3 or higher AESI” value (Prior to Coadministration) was 69 (58.0) n (%). The “Haematuria (hemorrhage AESI)” value (Prior to Coadministration) was 8.4%, the “Haematuria (major hemorrhage)” value (Prior to Coadministration) was 2 (1.7%) n (%) and the “Haematuria (major hemorrhage) ≥Grade 3” value (Prior to Coadministration) was 2 (1.7%) n (%). The “Haematuria leading to dose interruption” value (Prior to Coadministration) was 2 (1.7%) n (%), the “Haematuria ≥Grade 3” value (Prior to Coadministration) was 2 (1.7%) n (%) and the “Hemorrhage AESI leading to dose interruption” value (Prior to Coadministration) was 3.4%. The “Hemorrhage AESI leading to dose reduction” value (Prior to Coadministration) was 1.7%, the “Hemorrhage AESI ≥Grade 3, EAIR” value (Prior to Coadministration) was 0.19 per 100 person-months and the “Hemorrhage AESI ≥Grade 3, patients” value (Prior to Coadministration) was 2.5%. For the same compound, the “Hemorrhage AESI, EAIR” value (Prior to Coadministration) was 9.70 per 100 person-months, the “Hemorrhage AESI, patients” value (Prior to Coadministration) was 55.5% and the “Hepatitis B reactivation AESI” value (Prior to Coadministration) was 2.5%. For the same compound, the “Hepatitis B reactivation AESI ≥Grade 3” value (Prior to Coadministration) was 2 (1.7%) n (%), the “Hypertension AESI ≥Grade 3, EAIR” value (Prior to Coadministration) was 0.56 per 100 person-months and the “Hypertension AESI ≥Grade 3, patients” value (Prior to Coadministration) was 6.7%. The “Hypertension AESI, EAIR” value (Prior to Coadministration) was 1.13 per 100 person-months, the “Hypertension AESI, patients” value (Prior to Coadministration) was 12.6% and the “Infection AESI leading to death” value (Prior to Coadministration) was 0.8%. For the same compound, the “Infection AESI leading to dose reduction” value (Prior to Coadministration) was 7.6%, the “Infection AESI leading to treatment discontinuation” value (Prior to Coadministration) was 1.7% and the “Infection AESI ≥Grade 3, EAIR” value (Prior to Coadministration) was 3.82 per 100 person-months. For the same compound, the “Infection AESI, EAIR” value (Prior to Coadministration) was 18.08 per 100 person-months, the “Major hemorrhage AESI leading to dose interruption” value (Prior to Coadministration) was 1.7% and the “Major hemorrhage AESI ≥Grade 3, EAIR” value (Prior to Coadministration) was 0.19 per 100 person-months. For the same compound, the “Major hemorrhage AESI ≥Grade 3, patients” value (Prior to Coadministration) was 2.5%, the “Major hemorrhage AESI, EAIR” value (Prior to Coadministration) was 0.25 per 100 person-months and the “Major hemorrhage AESI, patients” value (Prior to Coadministration) was 3.4%. For the same compound, the Malignant melanoma (Prior to Coadministration) was 2 (1.7%) n (%), the Meningitis cryptococcal (Prior to Coadministration) was 2 (1.7%) n (%) and the “Neutropenia AESI leading to dose reduction” value (Prior to Coadministration) was 2.5%. For the same compound, the “Neutropenia AESI leading to treatment interruption” value (Prior to Coadministration) was 7.6%, the “Neutropenia AESI ≥Grade 3, EAIR” value (Prior to Coadministration) was 1.74 per 100 person-months and the “Neutropenia AESI ≥Grade 3, patients” value (Prior to Coadministration) was 20.2%. The “Neutropenia AESI, EAIR” value (Prior to Coadministration) was 2.72 per 100 person-months, the “Neutropenia AESI, patients” value (Prior to Coadministration) was 28.6% and the “Neutropenic sepsis PT” value (Prior to Coadministration) was 0.8%. The “Neutropenic sepsis ≥Grade 3” value (Prior to Coadministration) was 0.8%, the “Neutrophil count decreased leading to dose reduction” value (Prior to Coadministration) was 0.8% and the “Opportunistic infection AESI leading to dose reduction” value (Prior to Coadministration) was 3.4%. For the same compound, the “Opportunistic infection AESI leading to treatment discontinuation” value (Prior to Coadministration) was 0.8%, the “Opportunistic infection AESI ≥Grade 3, EAIR” value (Prior to Coadministration) was 0.38 per 100 person-months and the “Opportunistic infection AESI ≥Grade 3, patients” value (Prior to Coadministration) was 6 (5.0%) n (%). For the same compound, the “Opportunistic infection AESI, EAIR” value (Prior to Coadministration) was 0.64 per 100 person-months, the “Opportunistic infection AESI, patients” value (Prior to Coadministration) was 8.4% and the “Opportunistic infection SAEs, EAIR” value (Prior to Coadministration) was 0.38 per 100 person-months. The “Patients with at least 1 AESI” value (Prior to Coadministration) was 115 (96.6) n (%), the “Petechiae (hemorrhage AESI)” value (Prior to Coadministration) was 5.9% and the “Platelet count decreased PT” value (Prior to Coadministration) was 3.4%. The “Platelet count decreased ≥Grade 3” value (Prior to Coadministration) was 0.8%, the “Purpura (hemorrhage AESI)” value (Prior to Coadministration) was 5.9% and the “SAEs of opportunistic infections, patients” value (Prior to Coadministration) was 5.0% and 8.4%. The “Second primary malignancies AESI leading to dose interruption” value (Prior to Coadministration) was 4.2%, the “Second primary malignancies AESI ≥Grade 3, EAIR” value (Prior to Coadministration) was 0.32 per 100 person-months and the “Second primary malignancies AESI ≥Grade 3, patients” value (Prior to Coadministration) was 4.2%. For the same compound, the “Second primary malignancies AESI, EAIR” value (Prior to Coadministration) was 1.05 per 100 person-months, the “Second primary malignancies AESI, patients” value (Prior to Coadministration) was 12.6% and the “Serious AESI” value (Prior to Coadministration) was 53 (44.5) n (%). The “Serious anemia AESI, EAIR” value (Prior to Coadministration) was 0.06 per 100 person-months, the “Serious atrial fibrillation and flutter AESI, EAIR” value (Prior to Coadministration) was 0.06 per 100 person-months and the “Serious atrial fibrillation and flutter AESI, patients” value (Prior to Coadministration) was 0.8%. The “Serious external ear neoplasm malignant” value (Prior to Coadministration) was 2 (1.7%) n (%), the Serious haematuria (Prior to Coadministration) was 2 (1.7%) n (%) and the “Serious haematuria (major hemorrhage)” value (Prior to Coadministration) was 2 (1.7%) n (%). The “Serious hemorrhage AESI, EAIR” value (Prior to Coadministration) was 0.25 per 100 person-months, the “Serious hemorrhage AESI, patients” value (Prior to Coadministration) was 3.4% and the “Serious infection AESI, EAIR” value (Prior to Coadministration) was 3.31 per 100 person-months. For the same compound, the “Serious major hemorrhage AESI, EAIR” value (Prior to Coadministration) was 0.25 per 100 person-months, the “Serious major hemorrhage AESI, patients” value (Prior to Coadministration) was 3.4% and the “Serious neutropenia AESI, EAIR” value (Prior to Coadministration) was 0.26 per 100 person-months. The “Serious neutropenia AESI, patients” value (Prior to Coadministration) was 3.4%, the Serious neutropenic sepsis (Prior to Coadministration) was 0.8% and the “Serious neutrophil count decreased” value (Prior to Coadministration) was 0.0%. The “Serious second primary malignancies AESI, EAIR” value (Prior to Coadministration) was 0.39 per 100 person-months, the “Serious second primary malignancies AESI, patients” value (Prior to Coadministration) was 5.0% and the “Serious squamous cell carcinoma of skin” value (Prior to Coadministration) was 2 (1.7%) n (%). The “Skin cancer AESI ≥Grade 3, EAIR” value (Prior to Coadministration) was 0.26 per 100 person-months, the “Skin cancer AESI, EAIR” value (Prior to Coadministration) was 0.69 per 100 person-months and the “Skin cancer AESI, patients” value (Prior to Coadministration) was 8.4%. The “Skin cancer SAE, EAIR” value (Prior to Coadministration) was 0.26 per 100 person-months, the “Squamous cell carcinoma of skin” value (Prior to Coadministration) was 5.0% and the “Squamous cell carcinoma of skin ≥Grade 3” value (Prior to Coadministration) was 2 (1.7%) n (%). For the same compound, the “Thrombocytopenia AESI leading to dose interruption” value (Prior to Coadministration) was 0.8%, the “Thrombocytopenia AESI ≥Grade 3, EAIR” value (Prior to Coadministration) was 0.26 per 100 person-months and the “Thrombocytopenia AESI ≥Grade 3, patients” value (Prior to Coadministration) was 3.4%. For the same compound, the “Thrombocytopenia AESI, EAIR” value (Prior to Coadministration) was 0.79 per 100 person-months, the “Thrombocytopenia AESI, patients” value (Prior to Coadministration) was 9.2% and the “Thrombocytopenia PT” value (Prior to Coadministration) was 6.7%. For the same compound, the “Tumor lysis syndrome AESI” value (all study periods) was “No AESI of tumor lysis syndrome were reported”.
